In paper PMC8948257, “Limited solvation of an electron donating tryptophan stabilizes a photoinduced charge-separated state in plant (6–4) photolyase” (Scientific Reports, 2022):
Residue numbers refer to the chain shown, from its start.

Columns and labels:
Format in all cases: binding
Details in all cases: 5 mM L-cysteine, 20 mM phosphate pH 7.5, 500 mM NaCl, 10% glycerol, anaerobic, >430 nm light, on ice; native bound cofactor
[1] = target: T1, Xl64 (Xenopus laevis (6-4) PL) (Xenopus laevis, UniProt Q9I910, W370F/S372H, form not given); assay: steady-state FAD photoreduction by UV-Vis
T1 construct: gene Xl64phr; pET28a(+), expressed in E. coli; only the W370F/S372H mutant made here
T1 sequence (Q9I910 1-526 W370F/S372H): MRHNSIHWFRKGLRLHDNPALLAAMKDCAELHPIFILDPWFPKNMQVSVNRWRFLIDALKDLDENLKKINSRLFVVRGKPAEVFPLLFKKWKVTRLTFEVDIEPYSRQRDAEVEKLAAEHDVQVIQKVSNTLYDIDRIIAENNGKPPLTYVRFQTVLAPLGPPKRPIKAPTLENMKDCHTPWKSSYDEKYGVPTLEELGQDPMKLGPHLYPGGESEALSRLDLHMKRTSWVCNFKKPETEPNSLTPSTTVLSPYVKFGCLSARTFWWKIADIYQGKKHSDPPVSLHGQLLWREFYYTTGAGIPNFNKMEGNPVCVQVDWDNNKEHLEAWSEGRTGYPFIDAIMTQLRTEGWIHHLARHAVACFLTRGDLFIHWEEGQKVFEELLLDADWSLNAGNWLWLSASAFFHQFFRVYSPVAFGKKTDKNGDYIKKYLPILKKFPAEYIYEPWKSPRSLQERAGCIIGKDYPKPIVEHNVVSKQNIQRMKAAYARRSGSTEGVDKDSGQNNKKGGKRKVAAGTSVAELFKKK

[2] = target: T2, At64 ((6-4) photolyase from Arabidopsis thaliana) (Arabidopsis thaliana, UniProt O48652, H382V); assay: steady-state FAD photoreduction by UV-Vis
T2 construct: gene UVR3; pET-28a(+) NdeI/XhoI, His-tagged, expressed in E. coli C41(DE3)/pLysS; TALON and heparin purification
T2 sequence (O48652 20-556 H382V): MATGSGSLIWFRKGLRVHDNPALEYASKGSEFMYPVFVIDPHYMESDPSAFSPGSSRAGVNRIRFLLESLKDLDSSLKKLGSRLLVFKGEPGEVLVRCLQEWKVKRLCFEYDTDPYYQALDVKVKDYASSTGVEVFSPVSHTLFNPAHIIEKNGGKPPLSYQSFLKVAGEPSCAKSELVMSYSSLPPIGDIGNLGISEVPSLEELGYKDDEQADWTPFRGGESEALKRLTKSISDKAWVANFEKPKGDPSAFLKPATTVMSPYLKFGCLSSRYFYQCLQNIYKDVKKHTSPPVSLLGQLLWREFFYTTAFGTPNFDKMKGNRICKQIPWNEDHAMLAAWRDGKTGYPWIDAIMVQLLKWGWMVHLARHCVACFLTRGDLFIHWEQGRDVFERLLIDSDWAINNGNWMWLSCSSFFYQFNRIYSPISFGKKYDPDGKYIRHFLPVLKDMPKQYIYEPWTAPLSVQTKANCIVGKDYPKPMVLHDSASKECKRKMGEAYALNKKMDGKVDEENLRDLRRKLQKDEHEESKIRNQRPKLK

[3] = target: T3, At64 ((6-4) photolyase from Arabidopsis thaliana) (Arabidopsis thaliana, UniProt O48652, H382Y); assay: steady-state FAD photoreduction by UV-Vis
T3 construct: gene UVR3; pET-28a(+) NdeI/XhoI, His-tagged, expressed in E. coli C41(DE3)/pLysS; TALON and heparin purification
T3 sequence (O48652 20-556 H382Y): T2 sequence (O48652 20-556 H382V) with V363Y

[4] = target: T4, At64 ((6-4) photolyase from Arabidopsis thaliana) (Arabidopsis thaliana, UniProt O48652, H382D); assay: steady-state FAD photoreduction by UV-Vis
T4 construct: gene UVR3; pET-28a(+) NdeI/XhoI, His-tagged, expressed in E. coli C41(DE3)/pLysS; TALON and heparin purification
T4 sequence (O48652 20-556 H382D): T2 sequence (O48652 20-556 H382V) with V363D

[5] = target: T5, At64 ((6-4) photolyase from Arabidopsis thaliana) (Arabidopsis thaliana, UniProt O48652, H382S); assay: steady-state FAD photoreduction by UV-Vis; transient absorption
T5 construct: gene UVR3; pET-28a(+) NdeI/XhoI, His-tagged, expressed in E. coli C41(DE3)/pLysS; TALON and heparin purification
T5 sequence (O48652 20-556 H382S): T2 sequence (O48652 20-556 H382V) with V363S

[6] = target: T6, At64 ((6-4) photolyase from Arabidopsis thaliana) (Arabidopsis thaliana, UniProt O48652, H382N); assay: steady-state FAD photoreduction by UV-Vis
T6 construct: gene UVR3; pET-28a(+) NdeI/XhoI, His-tagged, expressed in E. coli C41(DE3)/pLysS; TALON and heparin purification
T6 sequence (O48652 20-556 H382N): T2 sequence (O48652 20-556 H382V) with V363N

## Cc1cc2nc3c(=O)[nH]c(=O)nc-3n(C[C@H](O)[C@H](O)[C@H](O)COP(=O)(O)OP(=O)(O)OC[C@H]3O[C@@H](n4cnc5c(N)ncnc54)[C@H](O)[C@@H]3O)c2cc1C [flavin adenine dinucleotide]
[1]
  steady-state FAD photoreduction by UV-Vis: the W370F/S372H double mutant of Xl64 (Xl64-W370F/S372H)
[2]
  steady-state FAD photoreduction by UV-Vis: we successfully purified the H382D, H382N, H382V and H382Y mutants of At64
[3]
  steady-state FAD photoreduction by UV-Vis: we successfully purified the H382D, H382N, H382V and H382Y mutants of At64
[4]
  steady-state FAD photoreduction by UV-Vis: we successfully purified the H382D, H382N, H382V and H382Y mutants of At64
[5]
  steady-state FAD photoreduction by UV-Vis; transient absorption: FAD photoreduction in At64-H382S occurred with a half-life
[6]
  steady-state FAD photoreduction by UV-Vis: we successfully purified the H382D, H382N, H382V and H382Y mutants of At64
